Laboratory results as given in patent US5484778A, “Phthalocyanine photosensitizers for photodynamic therapy and methods for their use” (priority 1993, dated 1996).
Where two headings read alike, the source gives them in different places.

How the values were obtained:
V79 cells [1] = experiment: Clonogenicity, killing of V79 cells using photodynamic therapy (Table 3); assay type: cell-based, Chinese hamster
Summary of the method: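 V79 Chinese hamster lung fibroblasts were loaded with 0.5 or 1.0 μM phthalocyanine, then about 18 h later irradiated with increasing doses of 675 nm broad-band red light (tungsten-halogen lamp, 600 nm high-pass filter). Recorded value is the light dose killing 90% of cells, or, failing that, the maximum kill (% survival) and its dose.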

L5178Y cells = experiment: Induction of apoptosis (DNA fragmentation) in L5178Y-R cells (Table 6); assay type: cell-based, mouse; details: for Minimum Demonstrated Condition to induce apoptosis: C × F / Minimum Demonstrated Condition to induce apoptosis: Fluence: 0.5 μM
Summary of the method: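 Exponentially growing mouse lymphoma L5178Y-R cells loaded 18 hours with phthalocyanine at various concentrations, then irradiated with >600 nm red light (up to 30 kJ/m^2, ~74 W/m^2). DNA isolated 2 hours post-PDT, run on 1.5% agarose; value is minimum PDT dose (concentration × fluence) giving visible DNA ladder.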

[2] = white light
[3] = system: Chinese hamster V79-379 cells; experiment: Growth delay of V79 cultures after red light (Table 1); assay type: cell-based; details: for Growth Delay, efficiency relative to 1 μM AlPcCl: 18 h, 12 kJ/m^2 red light; for inhibition of V79 culture growth (in words): red light 12 kJ/m^2, three day period
Protocol: (§1) Chinese hamster V79-379 lung fibroblasts were grown in monolayer culture in McCoy's 5A medium (Gibco Laboratories, Grand Island, N.Y.) augmented with 10% calf serum and buffered with 20 mM HEPES (pH 7.4).
(§2) The cells were treated with 1 μM AlPcCl (from Eastman Kodak, Rochester, N.Y.) or with phthalocyanine compositions I-VI (0.5-1.0 μM final concentration in the medium) for 18 hours by adding the appropriate volume of a 1.0 mM stock solution in dimethylformamide (DMF) to the culture medium. The growth medium was replaced with 4 ml Hank's balanced salt solution (HBSS), and the cells were irradiated. The light source was a 500 W tungsten-halogen lamp located approximately 29 inches below the surface of a glass exposure tray. The visible light administered to the cells was filtered to allow passage of only that portion of the visible spectrum above 600 nm (Lee Primary red filter No. 106, Vincent Lighting, Cleveland, Ohio). The fluence rate was approximately 0.074 kJ/m^2 /s at the level of the cell monolayer.
At the time of light exposure, there were approximately 1.5×10^5 cells per 25 cm^2 flask. Following irradiation, the HBSS was replaced by 10 ml of fresh complete growth medium, and the cultures were returned to the 37° C. incubator. At various times before and after irradiation, duplicate cultures were trypsinized and counted. Controls included untreated cells and cells treated with light alone or drug alone. In addition, in each experiment, the drug to be tested was compared to a standard treatment, i.e. 1 μM AlPcCl for 18 hours followed by 12 kJ/m^2 light.
The inhibition of V79 culture growth was measured during a three day period following red light irradiation (12 kJ/m^2) of phthalocyanine-pretreated cells. With each of the active compounds, as well as with AlPcCl, there was an initial decrease in cell density, as dead cells became detached from the monolayer. Thereafter, the cell number per flask increased, as living cells grew and divided. The time for the cell density to recover to the level at the time of light exposure was considered the growth delay. […] The ratio of the growth delay for the test photosensitizer and the growth delay for AlPcCl measured in the same experiment is recorded in Table 1.

[4] = system: Chinese hamster V79-379 cells; experiment: Clonogenic cell survival / photocytotoxicity in V79 cells (Table 1, FIG. 1, FIG. 2); assay type: cell-based
Protocol: FIG. 1 is a graph illustrating the photodynamic efficacy of the various compositions of the present invention in comparison to AlPcCl. The phthalocyanine composition compounds of the present invention were tested for their photodynamic efficiency against Chinese hamster fibroblast V79 cells by colony formation. Monolayer cultures were treated with the indicated phthalocyanine composition for 18 hours, irradiated with various fluences of red light, and immediately trypsinized and replated at appropriate aliquots in triplicate. Colonies of at least 50 cells were counted after 7-10 days. The plating efficiency of the untreated cells was approximately 90%.
In this regard, in FIG. 2 the data of FIG. 1 were replotted as a function of the product of the amount of cell-associated phthalocyanine and the light fluence.
as §1, §2
Cells were irradiated at a density of approximately 2×10^6 per 25 cm^2 flask. Immediately after irradiation, the cell monolayer was treated with trypsin, and appropriate aliquots were plated in triplicate to give 100 to 200 colonies in each 10-cm Petri dish. Cell survival was determined by the ability of the cells to form colonies containing at least 50 cells. The response of cells treated with 1 μM AlPcCl and light was compared in each experiment.
Photocytotoxicity of the phthalocyanines compounds I to VI was also assessed by clonogenic assay (Table 1, FIG. 1). In all experiments, 1 μM AlPcCl was included for comparison purposes. From the survival curves (FIG. 1), the fluence reducing the cell survival to 10% (F10) was obtained. The ratio of the F10 for AlPcCl and the F10 for the test compound is recorded in Table 1.
In order to take differences in cellular uptake into consideration in the assessment of the relative efficiency of these phthalocyanines as photosensitizers of V79 cells, the survival data were replotted against the product of intracellular phthalocyanine concentration and light fluence (FIG. 2). From these curves, the product of intracellular concentration and light fluence reducing survival to 10% (CF10) was obtained, and comparisons of the values for AlPcCl and the test compounds are recorded in Table 1.

viruses = details: New York Blood Center (Ben-Hur); cited from earlier work
V79 cells [5] = experiment: Uptake of additional phthalocyanines into V79 cells (Table 2); details: for Uptake into V79 cells: 18 hours
Protocol: (§3) V79 cells Chinese hamster lung fibroblasts were cultured using the cell culture methods described above. […] When the filters were dry, the phthalocyanines were extracted into ethanol and the absorption determined at the peak wavelength, usually 668 nm.

[6] = system: Chinese hamster V79-379 cells; experiment: Uptake of phthalocyanines by V79 cells relative to AlPcCl (Table 1); assay type: cell-based
Protocol: as §1
Total uptake was determined by scraping the phthalocyanine-treated monolayer, collecting the cells on a glass-fiber filter, and extracting the phthalocyanine in ethanol, as previously described by Ramakrishnan, et al., 1989. (Ramakrishnan, N., M. E. Clay, M. F. Horng, A. R. Antunez, & H. H. Evans, "DNA Lesions and DNA Degradation in Mouse Lymphoma L5178Y Cells After Photodynamic Treatment Sensitized by Chloroaluminum Phthalocyanine",Photochem. Photobiol, in press, 1989). The amount of drug was determined by absorption at 674 nm and expressed relative to the number of cells, as measured in a Coulter cell counter on an aliquot of the cell population. Controls included cells not treated with drug, medium alone, and drug-containing medium without cells. The results of the total uptake of the various compositions of the present invention in comparison to AlPcCl are set forth below in Table 1.
as §2
All of the compounds have been examined for the extent of cellular uptake after exposure of V79 cells to 1 μM or less in complete medium, and the data of Table 1 are presented relative to the uptake from 1 μM AlPcCl, which was 0.723±0.172 nmole/10^7 cells (mean ±S. D., 25 determinations). […] In particular, when the concentration of Compound IV was 1 μM in the medium, the uptake into the cells was sufficiently high that some of the uptake and phototoxicity studies were repeated at 0.5 μM.

V79 cells [7] = system: V79 cells
Protocol: as §3

## CN1CCN(CCC[Si](C)(C)O[Si]2(O[Si](C)(C)CCCN3CCN(C)CC3)n3c4c5ccccc5c3N=C3N=C(N=c5c6ccccc6c(n52)=NC2=NC(=N4)c4ccccc42)c2ccccc23)CC1 [Compound XXX, SiPc[OSi(CH3)2 (CH2)3 NC4 H8 NCH3]2]
Solubility
  solubility: < 500 µM
  solubility in DMF: not soluble in DMF
V79 cells [1]; Cricetulus griseus, V79, concentration not given, at 10 kJ/m^2, read-out: Maximum Effect (% survival)
  Cell survival at highest light dose: 30%
L5178Y cells; DMF-Tween 80
  Minimum Demonstrated Condition to induce apoptosis: C × F: 7.5 μm × kJ/m^2
  Minimum Demonstrated Condition to induce apoptosis: Fluence: 15.0 kJ/m^2

## CN(C)CCC[Si](C)(C)O[Si]1(C)n2c3c4ccccc4c2N=C2N=C(N=c4c5ccccc5c(n41)=NC1=NC(=N3)c3ccccc31)c1ccccc12 (stereo not drawn) [Compound III, CH3 SiPcOSi(CH3)2 (CH2)3 N(CH3)2]
[2]
  photolysis of solutions: rapidly photolyzed by white light
[3]
  Growth Delay, efficiency relative to 1 μM AlPcCl: 0.05
  inhibition of V79 culture growth (in words): less inhibition of culture growth
[4]
  photosensitizing efficiency / photocytotoxicity (in words): low activity

## CN1CCN(CCC[Si](C)(C)O[Si]2(C)n3c4c5ccccc5c3N=C3N=C(N=c5c6ccccc6c(n52)=NC2=NC(=N4)c4ccccc42)c2ccccc23)CC1 (stereo not drawn) [CH3 SiPcOSi(CH3)2 (CH2)3 NC4 H8 NCH3]
[2]
  photolysis of solutions: rapidly photolyzed by white light

## CCCCCCCCCCCC[N+](C)(C)CCC[Si](C)(C)O[Si]1(O[Si](C)(C)CCC[N+](C)(C)CCCCCCCCCCCC)n2c3c4ccccc4c2N=C2N=C(N=c4c5ccccc5c(n41)=NC1=NC(=N3)c3ccccc31)c1ccccc12 [Compound XIV, SiPc[OSi(CH3)2 (CH2)3 N^+ (CH3)2 (CH2)11 CH3]2 2I^-]
viruses
  purging viruses from blood and/or blood components: effective at purging viruses from blood and/or blood components
V79 cells [1]; Cricetulus griseus, V79, read-out: Maximum Effect (% survival)
  Cell survival at highest light dose at 1 µM: 93%
L5178Y cells; 1 μM at a fluence of 30 kJ/m^2
  induction of apoptosis: did not induce apoptosis
V79 cells [5]; 1 μM
  Uptake into V79 cells: 0.03 ± 0.01 n Moles/10^6 cells
V79 cells [5]; 4 μM
  Uptake into V79 cells: 0.05 ± 0.01 n Moles/10^6 cells
V79 cells [5]; average of all data
  Uptake into V79 cells, composite value: < 0.05 n Moles/10^6 cells/μM
V79 cells [5]; repeated in Table 3
  Uptake (from Table 2): < 0.05 n Moles/10^6 cells/μM

## CN(C)CCC[Si](C)(C)[O][Al]1[n]2c3c4ccccc4c2N=C2N=C(N=c4c5ccccc5c([n]41)=NC1=NC(=N3)c3ccccc31)c1ccccc12 [Compound I, AlPcOSi(CH3)2 (CH2)3 N(CH3)2]
[6]; 1.0 μM, 18 h
  Uptake, efficiency relative to 1 μM AlPcCl: 2.3
[6]; V79 cells, 1 μM or less, compared with AlPcCl
  cellular uptake (in words): taken up into the cells more efficiently than was AlPcCl
Solubility
  solubility in solvents: soluble in CH2 Cl2 and toluene
[3]
  Growth Delay, efficiency relative to 1 μM AlPcCl: 2.1
  inhibition of V79 culture growth (in words): substantial inhibition
[4]; 1.0 μM, 18 h, CF10 = intracellular concentration x fluence reducing survival to 10%
  CF10 (AlPcCl)/CF10 (Pc): 0.51
[4]; 1.0 μM, 18 h, F10 = fluence reducing survival to 10%
  F10 (AlPcCl)/F10 (Pc): 0.94
[4]; V79 cells, red light
  photosensitizing efficiency / photocytotoxicity (in words): nearly as efficient photosensitizers as AlPcCl

## CCCCCCCCCCCC[N+](C)(C)CCC[Si](C)(C)[O][Al]1[n]2c3c4ccccc4c2N=C2N=C(N=c4c5ccccc5c([n]41)=NC1=NC(=N3)c3ccccc31)c1ccccc12.[I-] [Compound XXI, AlPcOSi(CH3)2 (CH2)3 N^+ (CH3)2)(CH2)11 CH3 I^-]
V79 cells [7]
  Uptake into V79 cells, composite value: 1.3 n Moles/10^6 cells/μM
  uptake by V79 cells (in words): taken up particulary well
viruses
  purging viruses from blood and/or blood components: effective at purging viruses from blood and/or blood components
V79 cells [1]; 0.5 μM, 18 h, light dose killing 90% of cells
  LD 90: 15 kJ/m^2
L5178Y cells
  Minimum Demonstrated Condition to induce apoptosis: C × F: 7.5 μm × kJ/m^2
  Minimum Demonstrated Condition to induce apoptosis: Fluence: 15.0 kJ/m^2

## CN(C)CCCN(CCCN(C)C)CCC[Si](C)(C)O[Si]1(C)n2c3c4ccccc4c2N=C2N=C(N=c4c5ccccc5c(n41)=NC1=NC(=N3)c3ccccc31)c1ccccc12 (stereo not drawn) [CH3 SiPcOSi(CH3)2 (CH2)3 N[(CH2)3 N(CH3)2]2]
[2]
  photolysis of solutions: rapidly photolyzed by white light

## CCN(CCC[Si](C)(C)O[Si]1(C)n2c3c4ccccc4c2N=C2N=C(N=c4c5ccccc5c(n41)=NC1=NC(=N3)c3ccccc31)c1ccccc12)CCN(C)C (stereo not drawn) [CH3 SiPcOSi(CH3)2 (CH2)3 N(CH2 CH3)(CH2)2 N(CH3)2]
[2]
  photolysis of solutions: rapidly photolyzed by white light

## C[Si](C)(CCCN1CCNCC1)O[Si]1(O[Si](C)(C)CCCN2CCNCC2)n2c3c4ccccc4c2N=C2N=C(N=c4c5ccccc5c(n41)=NC1=NC(=N3)c3ccccc31)c1ccccc12 [Compound XXXII, SiPc[OSi(CH3)2 (CH2)3 NC4 H8 NH]2]
Solubility
  solubility in DMF: not soluble in DMF
L5178Y cells; DMF-Tween 80
  Minimum Demonstrated Condition to induce apoptosis: C × F: 2.5 μm × kJ/m^2
  Minimum Demonstrated Condition to induce apoptosis: Fluence: 5 kJ/m^2
